IC50 data for 32 molecules are collected here from patent US7704995B2 (Exelixis, Inc., priority 2003, dated 2010).

The experiment deals with T1, Chk1 (Homo sapiens, UniProt O14757).
T1 construct: purchased Upstate Biotechnology
T1 sequence (O14757 1-476): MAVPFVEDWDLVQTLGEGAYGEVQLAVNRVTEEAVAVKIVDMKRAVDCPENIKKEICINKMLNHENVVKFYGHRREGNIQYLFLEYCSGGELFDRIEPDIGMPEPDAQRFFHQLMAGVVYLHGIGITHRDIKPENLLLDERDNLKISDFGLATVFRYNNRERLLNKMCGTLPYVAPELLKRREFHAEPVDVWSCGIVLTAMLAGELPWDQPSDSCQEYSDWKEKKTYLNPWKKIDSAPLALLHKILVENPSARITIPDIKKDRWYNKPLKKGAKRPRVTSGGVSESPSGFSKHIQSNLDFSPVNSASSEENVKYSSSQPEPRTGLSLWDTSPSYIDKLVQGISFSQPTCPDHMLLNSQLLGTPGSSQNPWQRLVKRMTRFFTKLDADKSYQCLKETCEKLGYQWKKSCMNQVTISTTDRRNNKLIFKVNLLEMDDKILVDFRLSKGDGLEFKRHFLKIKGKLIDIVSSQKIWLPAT
As to the kind of experiment: Chk1 kinase assay: incorporation of γ-33P ATP into immobilized myelin basic protein. Particulars: read-out: Chk1 IC50. The format is biochemical. The method, boiled down:
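Radiometric filter-free format: Chk1 10 nM, 10 μM ATP; Chk2 20 nM, 30 μM ATP; γ-33P ATP tracer; immobilized MBP substrate; Hepes pH 7.6, 10 mM MgCl2, 1 mM DTT; 1 h RT; 1% DMSO. Scintillation counting of washed plates. IC50/Ki from curve fit.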

In general, IC50 refers to the concentration that gives 50% inhibition.

For `CNC(=O)c1nc(-c2cccc(C(=O)NCC3CCN(C(=O)OC(C)(C)C)C3)c2)cnc1N` (centres unmarked) [Example 364, 1,1-dimethylethyl 3-({[(3-{5-amino-6-[(methylamino)carbonyl]pyrazin-2-yl}phenyl)carbonyl]amino}methyl)pyrrolidine-1-carboxylate], the IC50 was in the range of 50 to 1000 nM.
Next, `CNC(=O)c1nc(-c2cccc(C(=O)NCC3CCCN3C(=O)OC(C)(C)C)c2)cnc1N` (centres unmarked) [Example 365, 1,1-dimethylethyl 2-({[(3-{5-amino-6-[(methylamino)carbonyl]pyrazin-2-yl}phenyl)carbonyl]amino}methyl)pyrrolidine-1-carboxylate]: 1000 to 10000 nM; `CNC(=O)c1nc(-c2cccc(C(=O)NCC3CCNC3)c2)cnc1N` (centres unmarked) [Example 366, 3-amino-N-methyl-6-(3-{[(pyrrolidin-3-ylmethyl)amino]carbonyl}phenyl)pyrazine-2-carboxamide]: 50 to 1000 nM; `CNC(=O)c1nc(-c2cccc(C(=O)NCC3CCCN3)c2)cnc1N` (centres unmarked) [Example 367, 3-amino-N-methyl-6-(3-{[(pyrrolidin-2-ylmethyl)amino]carbonyl}phenyl)pyrazine-2-carboxamide]: 50 to 1000 nM.
For the molecule `CNC(=O)c1nc(-c2cc(C(=O)NCc3ccccc3)ccc2F)cnc1N` [Example 368, 3-amino-6-(2-fluoro-5-{[(phenylmethyl)amino]carbonyl}phenyl)-N-methylpyrazine-2-carboxamide], the IC50 lay in the range of 50 to 1000 nM.
Next, `CNC(=O)c1nc(-c2cccc(NC(=O)Cc3ccc4c(c3)OCO4)c2)cnc1N` [Example 369, 3-amino-6-{3-[(1,3-benzodioxol-5-ylacetyl)amino]phenyl}-N-methylpyrazine-2-carboxamide]: 50 to 1000 nM; `CNC(=O)c1nc(-c2cccc(C(=O)NCc3ccc(F)cc3Cl)c2)cnc1N` [Example 370, 3-amino-6-[3-({[(2-chloro-4-fluorophenyl)methyl]amino}carbonyl)phenyl]-N-methylpyrazine-2-carboxamide]: 50 to 1000 nM; `CNC(=O)c1nc(-c2cccc(C(=O)NCc3ccc(OC)c(OC)c3)c2)cnc1N` [Example 371, 3-amino-6-{3-[({[3,4-bis(methyloxy)phenyl]methyl}amino)carbonyl]phenyl}-N-methylpyrazine-2-carboxamide]: 50 to 1000 nM.
Next, `CNC(=O)c1nc(-c2cccc(NCc3ccccc3)c2)cnc1N` [Example 372, 3-amino-N-methyl-6-{3-[(phenylmethyl)amino]phenyl}pyrazine-2-carboxamide]: 50 to 1000 nM; `CNC(=O)c1nc(-c2cccc(C(=O)NCc3ccccc3OCCN3CCOCC3)c2)cnc1N` [Example 373, 3-amino-N-methyl-6-(3-{[({2-[(2-morpholin-4-ylethyl)oxy]phenyl}methyl)amino]carbonyl}phenyl)pyrazine-2-carboxamide]: 50 to 1000 nM.
Take `CNC(=O)c1nc(-c2cccc(CNC(=O)c3ccc(C(C)C)cc3)c2)cnc1N` [Example 374, 3-amino-N-methyl-6-{3-[({[4-(1-methylethyl)phenyl]carbonyl}amino)methyl]phenyl}pyrazine-2-carboxamide]: the IC50 was 50 to 1000 nM.
For `CCCCc1ccc(CNC(=O)c2cccc(-c3cnc(N)c(C(=O)NC)n3)c2)cc1` [Example 375, 3-amino-6-[3-({[(4-butylphenyl)methyl]amino}carbonyl)phenyl]-N-methylpyrazine-2-carboxamide], the half-inhibitory concentration (IC50) lay within 50 to 1000 nM.
With `CNC(=O)c1nc(-c2cccc(C(=O)NCc3ccc(-c4csnn4)cc3)c2)cnc1N` [Example 376, 3-amino-N-methyl-6-{3-[({[4-(1,2,3-thiadiazol-4-yl)phenyl]methyl}amino)carbonyl]phenyl}pyrazine-2-carboxamide], the IC50 is under 50 nM.
On to `CNC(=O)c1nc(-c2cccc(C(=O)NCc3ccc(-c4cccs4)cc3)c2)cnc1N` [Example 377, 3-amino-N-methyl-6-{3-[({[4-(2-thienyl)phenyl]methyl}amino)carbonyl]phenyl}pyrazine-2-carboxamide], for which the IC50 is under 50 nM.
As to `CNC(=O)c1nc(-c2cccc(CNC(=O)c3ccc(C(C)(C)C)cc3)c2)cnc1N` [Example 378, 3-amino-6-{3-[({[4-(1,1-dimethylethyl)phenyl]carbonyl}amino)methyl]phenyl}-N-methylpyrazine-2-carboxamide], the IC50 fell in the range of 50 to 1000 nM.
Take `CNC(=O)c1nc(-c2cccc(C(=O)NCc3ccc(-n4cccn4)cc3)c2)cnc1N` [Example 379, 3-amino-N-methyl-6-{3-[({[4-(1H-pyrazol-1-yl)phenyl]methyl}amino)carbonyl]phenyl}pyrazine-2-carboxamide]: the concentration for half-maximal inhibition (IC50) was in the range of 50 to 1000 nM.
On to `CNC(=O)c1nc(-c2cccc(C(=O)NCc3ccc4c(c3)NCCO4)c2)cnc1N` [Example 380, 3-amino-6-(3-{[(3,4-dihydro-2H-1,4-benzoxazin-6-ylmethyl)amino]carbonyl}phenyl)-N-methylpyrazine-2-carboxamide], for which the IC50 fell in the range of 50 to 1000 nM.
Consider `CNC(=O)c1nc(-c2cccc(C(=O)NCc3c(N)cccc3F)c2)cnc1N` [Example 381, 3-amino-6-[3-({[(2-amino-6-fluorophenyl)methyl]amino}carbonyl)phenyl]-N-methylpyrazine-2-carboxamide], for which the IC50 lay within 50 to 1000 nM.
Regarding `CNC(=O)c1nc(-c2cccc(CNCc3ccc(-c4ccccc4)cc3)c2)cnc1N` [Example 382, 3-amino-6-(3-{[(biphenyl-4-ylmethyl)amino]methyl}phenyl)-N-methylpyrazine-2-carboxamide], the IC50 is 50 to 1000 nM.
`CNC(=O)c1nc(-c2cccc(CNCc3ccccc3-c3ccccc3)c2)cnc1N` [Example 383, 3-amino-6-(3-{[(biphenyl-2-ylmethyl)amino]methyl}phenyl)-N-methylpyrazine-2-carboxamide]: the IC50 lay in the range of 50 to 1000 nM.
In the case of `CNC(=O)c1nc(-c2cccc(CNCc3cccc(-c4ccccc4)c3)c2)cnc1N` [Example 384, 3-amino-6-(3-{[(biphenyl-3-ylmethyl)amino]methyl}phenyl)-N-methylpyrazine-2-carboxamide] it was 50 to 1000 nM; in that of `CNC(=O)c1nc(-c2cccc(C(=O)NCC3CCCN3Cc3ccccc3)c2)cnc1N` (centres unmarked) [Example 385, 3-amino-N-methyl-6-{3-[({[1-(phenylmethyl)pyrrolidin-2-yl]methyl}amino)carbonyl]phenyl}pyrazine-2-carboxamide], 50 to 1000 nM; in that of `CNC(=O)c1nc(-c2cccc(CNCc3ccc4c(c3)NCCO4)c2)cnc1N` [Example 386, 3-amino-6-(3-{[(3,4-dihydro-2H-1,4-benzoxazin-6-ylmethyl)amino]methyl}phenyl)-N-methylpyrazine-2-carboxamide], 50 to 1000 nM.
Next, `CNC(=O)c1nc(-c2cccc(CNCc3ccc(F)cc3F)c2)cnc1N` [Example 387, 3-amino-6-[3-({[(2,4-difluorophenyl)methyl]amino}methyl)phenyl]-N-methylpyrazine-2-carboxamide]: under 50 nM; `CNC(=O)c1nc(-c2cccc(CNCc3cc(F)ccc3F)c2)cnc1N` [Example 388, 3-amino-6-[3-({[(2,5-difluorophenyl)methyl]amino}methyl)phenyl]-N-methylpyrazine-2-carboxamide]: 50 to 1000 nM; `CNC(=O)c1nc(-c2cccc(CNCc3cccc(F)c3F)c2)cnc1N` [Example 389, 3-amino-6-[3-({[(2,3-difluorophenyl)methyl]amino}methyl)phenyl]-N-methylpyrazine-2-carboxamide]: 50 to 1000 nM.
Next, `CNC(=O)c1nc(-c2cccc(C(=O)NCc3ccccc3-c3ccncc3)c2)cnc1N` [Example 390, 3-amino-N-methyl-6-[3-({[(2-pyridin-4-ylphenyl)methyl]amino}carbonyl)phenyl]pyrazine-2-carboxamide]: 50 to 1000 nM; `CNC(=O)c1nc(-c2cccc(C(=O)NCc3ccccc3-c3cccnc3)c2)cnc1N` [Example 391, 3-amino-N-methyl-6-[3-({[(2-pyridin-3-ylphenyl)methyl]amino}carbonyl)phenyl]pyrazine-2-carboxamide]: 50 to 1000 nM; `CNC(=O)c1nc(-c2cccc(CNCc3ccc(S(C)(=O)=O)cc3)c2)cnc1N` [Example 392, 3-amino-N-methyl-6-{3-[({[4-(methylsulfonyl)phenyl]methyl}amino)methyl]phenyl}pyrazine-2-carboxamide]: 50 to 1000 nM.
As for `CNC(=O)c1nc(-c2cccc(CNCC(c3ccccc3)c3ccccc3)c2)cnc1N` [Example 393, 3-amino-6-(3-{[(2,2-diphenylethyl)amino]methyl}phenyl)-N-methylpyrazine-2-carboxamide], the IC50 lay within 50 to 1000 nM.
Next, `CNC(=O)c1nc(-c2cccc(C(=O)NCC3CCN(Cc4ccccc4)C3)c2)cnc1N` (centres unmarked) [Example 394, 3-amino-N-methyl-6-{3-[({[1-(phenylmethyl)pyrrolidin-3-yl]methyl}amino)carbonyl]phenyl}pyrazine-2-carboxamide]: 50 to 1000 nM; `CNC(=O)c1nc(-c2cccc(CNCc3cccc(Oc4ccccc4)c3)c2)cnc1N` [Example 395, 3-amino-N-methyl-6-{3-[({[3-(phenyloxy)phenyl]methyl}amino)methyl]phenyl}pyrazine-2-carboxamide]: 50 to 1000 nM.
